# From patent US20200333357A1, “NOVEL TFEB PATHWAY AGONISTS FOR METABOLIC DISEASES AND AGEING” (The Board of Regents of the University of Texas System, priority 2017, published 2020)
# Structures can show the parent of a compound that is named as a salt.
# How the values were obtained:
# HeLa cells = assay: Fura-2 Ca2+ imaging; format: cell-based, human; details: exposure at ~TFEB EC90
# Method: HeLa cells treated with compounds or DMSO for 4 hr were loaded with Fura-2-AM (3 μM) in cell culture medium for 60 min at 37° C. Cells were washed twice then incubated in fresh medium for 30 min to allow complete de-esterification of intracellular AM esters. Imaging was performed at 37° C. with 5% CO2 on an epifluorescent microscope (Deltavision, Applied Precision) equipped with a digital monochrome Coolsnap HQ2 camera (Roper Scientific, Tucson, Ariz.). Fluorescence images were collected using SoftWoRx v3.4.5 (Universal Imaging, Downingtown, Pa.). Data were recorded at excitation/emission wavelengths of 340/510 nm (Fura-340 filter) and 387/510 nm (Fura-380 filter). The single band pass excitation filter for Fura-340 and Fura-380 is 26 nm and 11 nm, respectively, and the band pass of emission filters for Fura-340 and Fura-380 is 84 nm. Intracellular calibration of Fura-2 was accomplished by manipulating the Ca^2+ levels inside cells using the ionphore ionomycin (20 μM, Sigma-Aldrich) and by incubating cells in buffers with various Ca^2+ concentrations (calcium calibration buffer kit—Invitrogen). Intracellular fluorescence ratios were determined using ImageJ software. Images were background-corrected by subtracting the mean pixel values of a cell-free region near the region of interest. Fluorescent intensity ratio R=F340/F380, and Ca^2+ concentration can be calculated from Equation 3, where Kd can be obtained from intracellular calibration:
# [Ca^2+]Kd×F380,min/F380,max×(R−Rmin)/(Rmax−R) (3)
# [1] = tested on: C57BL/6J mice fed a high-fat diet; assay: High-fat diet mouse model for in vivo compound delivery; details: for known TFEB target genes mRNA in liver and muscle: HFD mice treated with AD or IKA (PEG-PLA nanoparticles i.v.); for high fat diet-induced steatosis (liver histology): 3 weeks, DG oral, AD and IKA i.v. in PEG-PLA nanoparticles; for body weight/composition and blood chemistry: AD 1 mg kg-1 or IKA 0.5 mg kg-1 in PEG-PLA nanoparticles i.v.; for expression of Ppargc1α, Ppar1α and Fgf21: liver
# Method: Total RNA was isolated from MEFs or mouse tissues using RNeasy minipreps (QIAGEN). Complementary DNA (cDNA) was synthesized with the High capacity RNA-to-cDNA kit (Applied biosystems), and qRT-PCR was performed using TaqMan® Gene Expression Assays (Applied biosystems) for the indicated genes on the LightCycler System (Roche Applied Science). Gapdh was used to normalize RNA input. The mouse probes used in this study were: Tfeb (Mm00448968_m1), Ctsa (Mm00447197_m1), Mcoln 1 (Mm00522550_m1), Ppara (Mm00440939_m1), Ppargc1a (Mm01208835_m1), Fgf21 (Mm00840165_g1) and Gapdh (Mm99999915_g1), and the human probes used were TFEB (Hs00292981_m1), CTSA (Hs00264902_m1), MCOLN1 (Hs01100653_m1), PPARGC1A (Hs00173304_m1), PPARA (Hs00947536_m1), UVRAG (Hs01075434_m1), GAPDH (Hs02758991_g1) and p62/SQSTM1 (Hs01061917_g1). All probes were from Thermo Fisher Scientific Inc.
# All mouse experiments were approved and carried out following the ethical guidelines established by the Institutional Animal Care and Use Committee at UT Southwestern Medical Center. The investigators were not blinded to allocation during experiments and outcome assessment. Four to six weeks old male C57BL/6J mice were randomly divided into groups fed a regular diet (Harlan Teklad) or a high-fat diet (HFD) containing 60% fat (Research Diets). After one month, the HFD mice were grouped so that the average body weights of mice in each group were similar. The grouped mice were orally administered DG (2.5 mg kg-1) or its solvent 50% HPβCD solution, or intravenously injected with AD (1 mg kg-1) or IKA (0.5 mg kg-1) encapsulated in the PEG-PLA nanoparticles or empty nanoparticles, three times a week for three weeks. Body weight and food intake were measured twice a week before treatment and every day after treatment in the middle of the light period. The cage tops containing food pellets were weighed, as well as the spilled food in the bottom of the cage. The food intake was corrected for spillage.
# At the end of the treatment, the body composition of each mouse was analyzed by EchoMRI (Echo Medical Systems LLC) according to the manufacturer's instructions.
# For glucose tolerance tests, the mice were orally administered 1 mg g-1 glucose (Sigma-Aldrich) after a 4 hr fast. For insulin tolerance tests, the mice were intraperitoneally injected with 0.75 milliunit g-1 insulin (Humulin R, Eli Lily) after a 4 hr fast. Blood was drawn from tail veins at indicated time points after injection. Experiments were performed during light period. Serum glucose levels were analyzed using commercial glucose reagents (Sigma).
# At the end of the treatment, blood was collected from the orbital plexus under anesthesia. Serum was frozen in aliquots and stored at −20° C. for further analysis. Specific enzyme kits were used to detect serum levels of triglyceride (Fisher Scientific), cholesterol (Fisher Scientific) and glucose (Sigma-Aldrich).
# Livers and other organs were dissected and embedded in OCT. Cryostat sections were cut at 10 μm. The sections were stored at −80° C. and subjected to haematoxylin/eosin and oil red O staining following standard protocol. The immunohistochemistry (IHC) staining of p62 was performed following the protocol of Cell Signaling Technology. The primary antibody was from Abcam, and the SignalStain® boost IHC detection reagent and DAB substrate kit were from Cell Signaling Technology. All the sections were imaged using a NanoZoomer 2.0-HT Digital slide scanner (Hamamatzu) and processed using NDP viewer software.
# AMPK = AMPK and ACC phosphorylation immunoblots; format: cell-based, human; details: HeLa cells, dose-dependent
# Method: (§1) SFIGS. […] (SFIG. 4B) Representative images of GFP-TFEB HeLa cells treated with 3.3 μM AD or in combination with 5 μM FK506, 10 μM CsA or both. […] Scale bar, 20 μm. […] Scale bar, 20 μm. […] Scale bar, 20 μm. (SFIGS. 4F-G) Immunoblots of wide-type HeLa cells treated with various doses (starting from 3.3 μM with a 3-fold dilution, and right-most lane is DMSO) of AD and IKA.
# NFAT = assay: Endogenous NFAT nuclear translocation; format: cell-based; details: high or intermediate doses
# Method: as §1
# [2] = HFD mice, three times a week for three weeks
# [3] = HFD mice, DG 2.5 mg kg-1 oral, three times a week for three weeks
SMILES,cytosolic calcium (Fura-2) (HeLa cells),known TFEB target genes mRNA in liver and muscle [1],high fat diet-induced steatosis (liver histology) ([1]; HFD mice),"body weight/composition and blood chemistry [1, 2]","expression of Ppargc1α, Ppar1α and Fgf21 ([1]; HFD mice)",activating phosphorylation of AMPK and its substrate ACC (AMPK),nuclear translocation of NFAT (NFAT),"body composition [1, 3]","body weight [1, 3]","circulating cholesterol [1, 3]","circulating glucose [1, 3]","circulating insulin levels [1, 3]","circulating triglycerides [1, 3]"
"CC[C@H]1[C@@H]2C=C[C@@H]3[C@H]4C/C=C\C(=O)NCCC[C@@H]5NC(=O)/C(=C(O)/C=C/[C@@H]4C[C@@H]3[C@H]2C[C@H]1C)C5=O [IKA, ikarugamycin]",induce accumulation of cytosolic calcium,upregulated in the liver rather than in the muscle,amelioration,significant normalization,upregulation,induced activating phosphorylation,not,,,,,,
"C[C@H]1O[C@@H](O[C@H]2[C@@H](O)C[C@H](O[C@H]3[C@@H](O)C[C@H](O[C@H]4CC[C@@]5(C)[C@H](CC[C@@H]6[C@@H]5C[C@@H](O)[C@]5(C)[C@@H](C7=CC(=O)OC7)CC[C@]65O)C4)O[C@@H]3C)O[C@@H]2C)C[C@H](O)[C@@H]1O [DG, digoxin, reference compound]",induce accumulation of cytosolic calcium,,amelioration,,upregulation,not,not,normalized,normalized,normalized,normalized,normalized,normalized
"CCCCC(CC)CNC(=N)NC(=N)NCCCCCCNC(=N)NC(=N)NCC(CC)CCCC (stereo not shown) [AD, alexidine dihydrochloride]",induce accumulation of cytosolic calcium,upregulated in the liver rather than in the muscle,amelioration,significant normalization,upregulation,induced activating phosphorylation,induced dose-dependent nuclear translocation,,,,,,
